In patent EP4293019A1, “4-SUBSTITUTED (1H-BENZO[D]IMIDAZOL-2-YL)-1H-PYRAZOLES AS BUB1 INHIBITORS USEFUL FOR TREATING CANCERS” (Netherlands Translational Research Center Holding B.V., priority 2022, dated 2023):

Assays:
[1] = system: U2OS cells; assay: Cellular proliferation assay (SRB proliferation assay); type: cell-based; conditions: Homo sapiens, 72 h treatment, SRB staining, N=2, n=3
Description: This protocol describes how the Cellular Proliferation Assay was performed to determine pIC50 values of compounds of general formula (I) against U2OS cells.
U2OS (human osteosarcoma) cells were purchased at ATCC and were tested on regular basis for mycoplasma contamination. Cultures were discarded after 2-3 months of use. Cells were cultured at 37°C under 7% CO2 in DMEM (Sigma Aldrich, D6546) supplemented with GlutaMAX (2 mM, ThermoFisher), 10% (v/v) heat-inactivated newborn calf serum (Seradigm), penicillin and streptomycin (200 µg/mL each, Duchefa) (complete medium). Medium was refreshed every 2-3 days and cells were passaged by trypsinization twice a week at 80-90% confluence. Cell viability was assessed by Trypan Blue exclusion and cell quantification using a TC20™ Automated Cell Counter (Bio-Rad).
Assays were performed in 96-well plates (Greiner, Cellstar, 655180) by seeding (day 0), treatment (day 1) and subsequent incubation for 72 h. Cells were fixed, stained and staining was subsequently dissolved after which absorbance was measured. Each assay included the following controls: (i) a background control (to which no cells were added), (ii) t0 controls (separate assay plate in which cells were fixed on day 1, used as 0% proliferation), (iii) nontreated controls (present in each assay plate, treated with vehicle and used as 100% proliferation). Cells were treated with different concentrations of indicated inhibitor. All inhibitors were tested in two separate assays and all inhibitor concentrations were tested in triplicate per assay (N=2, n=3).
For each assay, U2OS cells from 10 cm dishes were seeded into 96-well plates (3,000 cells/well) and subsequently incubated overnight to allow for cell adherence. Stocks of inhibitor and vehicle (all in DMSO) were diluted in complete medium to obtain 2x working solutions (1% DMSO). Cell medium was replaced by fresh complete medium (50 µL), treatment was started by addition of the 2x working solutions (50 µL) and plates were incubated at 37°C for 72 h. Cell medium was replaced by fresh serum free medium (100 µL) and cells were fixed by addition of 30 µL 50% (w/v) aq. trichloroacetic acid after which the plates were incubated at 4°C for 60 min. Wells were emptied by shaking the plates upside down after which wells were washed three times with demineralized water and air-dried overnight. To each well, 60 µL of SRB solution (0.4% (w/v) in 1% aq. acetic acid) was added and plates were incubated for 30 min. The excess SRB was removed and the wells were washed three times with 1% aq. acetic acid and air-dried overnight. Bound SRB was redissolved by addition of 150 µL 10 mM TRIS (free-base) and absorbance was measured at 540 nm on a CLARIOstar plate reader. Data was normalized between t0 and nontreated controls and plotted using GraphPad Prism 8.0 using "Nonlinear regression (curve fit)" and "log(inhibitor) vs. normalized response - Variable slope" to determine pIC50 values.
Inhibition is indicated as pIC50 ("-" = not measured). Compounds having an activity designated as "A" provided an pIC50 ≥ 6.0 (IC50 ≤1 µM); compounds having an activity designated as "B" provided an 5.3 ≤ pIC50 < 6.0 (1 µM<IC50 ≤ 5 µM); compounds having an activity designated as "C" provided an 5.0 ≤ pIC50 < 5.3 (5 µM < IC50 ≤ 10 µM); compounds having an activity designated as "D" provided an 5.0 < pIC50 ≤ 4.7 (10 µM < IC50 ≤ 20 µM); and compounds having an activity designated as "E" provided an pIC50 < 4.7 (IC50 >20 µM).

[2] = target: T1, hBUB1 (Homo sapiens, UniProt O43683); assay: hBUB1 kinase activity assay (biochemical fluorescence polarization assay, IMAP); conditions: BUB1/BUB3 3.26 nM, ATP 15 µM, BUB1/BUB3 substrate 75 nM; N=2, n=2; read-out: hBUB1 pIC50 (converted)
T1 construct: purchased Carna Biosciences 05-187
Description: This protocol describes how the Kinase Activity Assay was performed to determine pIC50 values of compounds of general formula (I) against hBUB1.
Assays were performed in 384-well plates (Greiner, black, flat bottom, 781076) by sequential addition (final concentrations are indicated) of inhibitor (5 µL, 0.3 nM - 1 µM or 3 nM - 10 µM), BUB1/BUB3 (5 µL, 3.26 nM, Carna Biosciences (05-187), lot: 15CBS-0644 D), ATP (5 µL, 15 µM) and BUB1/BUB3 substrate (5 µL, 75 nM, Carna Biosciences (05-187MSSU)), all as 4x working solutions. The final concentration of DMSO was 1%. Assay reactions were stopped by addition of IMAP progressive binding reagent (20 µL, 1200x diluted, Molecular Devices (R8155), lot: 3117896). Each assay included the following controls: (i) a background control (treated with vehicle instead of inhibitor and BUB1/BUB3 substrate), (ii) MIN controls (treated with 5 µM BAY1816032 (MedChem Express) as inhibitor, used as 0% BUB1 activity) and (iii) MAX controls (treated with vehicle instead of inhibitor, used as 100% BUB1 activity). All inhibitors were tested in two separate assays and all inhibitor concentrations were tested in duplicate per assay (N=2, n=2).
For each assay, assay buffer (AB) was freshly prepared and consisted of 20 mM HEPES (prepared by diluting 1 M HEPES, pH 7.2), 5 mM MgCl2, 0.01% Tween-20 and 1 mM DTT. Stocks of inhibitors (in DMSO) were diluted in AB to obtain 4x working solutions (4% DMSO) and 5 µL was added to the assay plate. BUB1/BUB3 (3.26 µM (486 µg/mL) in storage buffer) was diluted in AB to obtain 13.0 nM of which 5 µL was added to all wells of the assay plate. The assay plate was centrifuged (1 min, 200 g) and incubated at RT for 30 min. ATP (4 mM in MilliQ) was diluted in AB to obtain 60 µM of which 5 µL was added to each well. BUB1/BUB3 substrate (1 mM) was diluted in 20 mM HEPES (prepared by diluting 1 M HEPES (pH 7.2) in MilliQ) to obtain 80 µM (this solution was freshly prepared every assay) and further diluted in AB to obtain 300 nM after which 5 µL was added to each well of the assay plate except for background control wells. The assay plate was centrifuged (1 min, 200 g) and incubated at RT in the dark for 180 min. IMAP progressive binding buffer A (5x) and IMAP progressive binding buffer B (5x) were mixed in a ratio to obtain 30% buffer A and 70% buffer B, which was subsequently diluted 5x in MilliQ. IMAP progressive binding reagent was diluted 600x in aforementioned mixture of buffer A and B (to obtain a 2x working solution) of which 20 µL was added to each well of the assay plate. The assay plate was centrifuged (1 min, 200 g) and incubated at RT in the dark for 90 min. Fluorescence polarization was measured on a CLARIOstar plate reader using the following settings: (i) optic settings → excitation = F: 482-16, dichroic = F: LP 504, emission = F: 530-40, (ii) optic = top optic, (iii) speed/precision = maximum precision, (iv) focus adjustment was performed for every assay and (v) gain adjustment was done by setting the target mP value to 35 mP for one of the MIN control wells. Data was normalized between MIN and MAX controls and data was plotted using GraphPad Prism 8.0 using "Nonlinear regression (curve fit)" and "log(inhibitor) vs. normalized response - Variable slope" to determine pIC50 values.
Inhibition is indicated as pIC50 ("-" = not measured). Compounds having an activity designated as "A" provided an pIC50 ≥ 7.0 (IC50 ≤100 nM); compounds having an activity designated as "B" provided an 6.3 ≤ pIC50 < 7.0 (100 nM<IC50 ≤ 500 nM); compounds having an activity designated as "C" provided an 6.0 ≤ pIC50 < 6.3 (500 nM < IC50 ≤ 1 µM); compounds having an activity designated as "D" provided an 6.0 < pIC50 ≤ 5.0 (1 µM < IC50 ≤ 10 µM); and compounds having an activity designated as "E" provided an pIC50 < 5.0 (IC50 >10 µM).

T1 sequence (O43683 whole entry): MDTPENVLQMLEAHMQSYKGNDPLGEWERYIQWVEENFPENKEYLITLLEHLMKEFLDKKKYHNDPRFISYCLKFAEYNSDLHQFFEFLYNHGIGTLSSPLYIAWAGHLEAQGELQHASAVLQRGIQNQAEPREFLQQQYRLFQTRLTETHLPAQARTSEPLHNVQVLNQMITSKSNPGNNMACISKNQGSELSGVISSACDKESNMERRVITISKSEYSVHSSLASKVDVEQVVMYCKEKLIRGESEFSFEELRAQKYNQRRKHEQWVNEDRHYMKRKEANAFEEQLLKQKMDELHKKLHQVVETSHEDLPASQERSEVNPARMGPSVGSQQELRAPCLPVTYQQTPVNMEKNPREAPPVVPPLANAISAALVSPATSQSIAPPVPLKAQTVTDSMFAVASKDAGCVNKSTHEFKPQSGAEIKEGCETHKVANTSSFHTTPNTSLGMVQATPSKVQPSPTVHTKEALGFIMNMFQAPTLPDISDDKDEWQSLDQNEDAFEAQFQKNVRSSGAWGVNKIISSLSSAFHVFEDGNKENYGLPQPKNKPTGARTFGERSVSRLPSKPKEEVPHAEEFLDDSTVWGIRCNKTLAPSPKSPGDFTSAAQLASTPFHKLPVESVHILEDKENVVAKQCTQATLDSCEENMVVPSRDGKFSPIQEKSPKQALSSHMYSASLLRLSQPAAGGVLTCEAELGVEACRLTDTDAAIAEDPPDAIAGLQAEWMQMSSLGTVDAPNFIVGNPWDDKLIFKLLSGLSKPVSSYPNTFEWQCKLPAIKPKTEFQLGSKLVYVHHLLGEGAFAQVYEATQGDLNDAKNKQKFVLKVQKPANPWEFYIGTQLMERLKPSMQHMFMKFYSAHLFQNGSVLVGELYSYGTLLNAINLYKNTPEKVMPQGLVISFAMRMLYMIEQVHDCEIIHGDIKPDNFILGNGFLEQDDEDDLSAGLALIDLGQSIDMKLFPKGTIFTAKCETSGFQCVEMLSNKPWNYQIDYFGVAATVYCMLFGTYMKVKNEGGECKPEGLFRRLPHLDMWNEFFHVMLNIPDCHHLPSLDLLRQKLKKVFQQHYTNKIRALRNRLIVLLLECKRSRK
T1 sequence (O43684 whole entry partner): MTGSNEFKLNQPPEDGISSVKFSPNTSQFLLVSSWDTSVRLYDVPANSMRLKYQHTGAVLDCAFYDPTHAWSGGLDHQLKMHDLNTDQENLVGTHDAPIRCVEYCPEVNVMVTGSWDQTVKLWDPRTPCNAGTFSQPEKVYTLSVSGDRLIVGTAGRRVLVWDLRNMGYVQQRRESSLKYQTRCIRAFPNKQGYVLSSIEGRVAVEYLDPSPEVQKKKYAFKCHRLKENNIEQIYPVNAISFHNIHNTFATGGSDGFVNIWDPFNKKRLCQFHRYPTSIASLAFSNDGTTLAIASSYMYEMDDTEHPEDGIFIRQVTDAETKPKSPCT

SMILES | IC50 [1] [µM] | IC50 [2] [µM]
Clc1cccc(-c2nccc(Nc3c[nH]nc3-c3nc4cc(CN5CCOCC5)ccc4[nH]3)n2)c1 [Compound 41, 2-(3-Chlorophenyl)-N-(3-(5-(morpholinomethyl)-1H-benzo[d]imidazol-2-yl)-1H-pyrazol-4-yl)pyrimidin-4-amine] | 1 to 5.01 | ≤ 0.1
C#Cc1cccc(-c2nccc(Nc3c[nH]nc3-c3nc4cc(CN5CCOCC5)ccc4[nH]3)n2)c1 [Compound 42, 2-(3-Ethynylphenyl)-N-(3-(5-(morpholinomethyl)-1H-benzo[d]imidazol-2-yl)-1H-pyrazol-4-yl)pyrimidin-4-amine] | 1 to 5.01 | ≤ 0.1
COc1cnc(-c2cc(Cl)ccc2F)nc1Nc1c[nH]nc1-c1nc2cc(CN3CCOCC3)ccc2[nH]1 [Compound 57, 2-(5-Chloro-2-fluorophenyl)-5-methoxy-N-(3-(5-(morpholinomethyl)-1H-benzo[d]imidazol-2-yl)-1H-pyrazol-4-yl)pyrimidin-4-amine] | ≤ 1 | ≤ 0.1
N#Cc1cccc(-c2nccc(Nc3c[nH]nc3-c3nc4cc(CN5CCOCC5)ccc4[nH]3)n2)c1 [Compound 44, 3-(4-((3-(5-(Morpholinomethyl)-1H-benzo[d]imidazol-2-yl)-1H-pyrazol-4-yl)amino)pyrimidin-2-yl)benzonitrile] | 1 to 5.01 | 0.501 to 1
c1ccc(-c2nccc(Nc3c[nH]nc3-c3nc4cc(CN5CCOCC5)ccc4[nH]3)n2)cc1 [Compound 16, N-(3-(5-(morpholinomethyl)-1H-benzo[d]imidazol-2-yl)-1H-pyrazol-4-yl)-2-phenylpyrimidin-4-amine] | 1 to 5.01 | 0.1 to 0.501
FC(F)(F)c1cccc(-c2nccc(Nc3c[nH]nc3-c3nc4cc(CN5CCOCC5)ccc4[nH]3)n2)c1 [Compound 43, N-(3-(5-(Morpholinomethyl)-1H-benzo[d]imidazol-2-yl)-1H-pyrazol-4-yl)-2-(3-(trifluoromethyl)phenyl)pyrimidin-4-amine] | 1 to 5.01 | 0.501 to 1
COc1cnc(-c2cccc(Cl)c2)nc1Nc1c[nH]nc1-c1nc2cc(CN3CCOCC3)ccc2[nH]1 [Compound 51, 2-(3-Chlorophenyl)-5-methoxy-N-(3-(5-(morpholinomethyl)-1H-benzo[d]imidazol-2-yl)-1H-pyrazol-4-yl)pyrimidin-4-amine] | ≤ 1 | ≤ 0.1
C#Cc1cccc(-c2ncc(OC)c(Nc3c[nH]nc3-c3nc4cc(CN5CCOCC5)ccc4[nH]3)n2)c1F [Compound 56, 2-(3-Ethynyl-2-fluorophenyl)-5-methoxy-N-(3-(5-(morpholinomethyl)-1H-benzo[d]imidazol-2-yl)-1H-pyrazol-4-yl)pyrimidin-4-amine] | ≤ 1 | ≤ 0.1
